Assay results from PMC7377239, “Cardiovascular Effects of Polychlorinated Biphenyls and Their Major Metabolites” (Environmental Health Perspectives, 2020).
Counter-ions that a name gives are not always drawn. Like-named read-outs stand apart in the source and are kept apart here.

Tested on: iCell endothelial cells (human iPSC-derived ECs)
Assay: Tube formation (tubulogenesis) assay in iCell endothelial cells, 18 h
Assay type: cell-based
Conditions: Homo sapiens, Endothelial cell; for activity at 0.1 µM: 0.10 µM
In short: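 iCell ECs (passages 1–5) seeded 7,500 cells/well on reduced-growth-factor Geltrex in starvation medium, exposed overnight at 37°C to compounds in triplicate concentration–response (0.5% DMSO vehicle). Calcein AM staining, 4× imaging, angiogenesis image analysis; readouts normalized to vehicle, four-parameter logistic fit, POD at 1 SD of vehicle; 100 μM assigned NOAEL if no response.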

[1] = iPSC-EC tube formation, 18 hr, 0.00 µM control = 100.00, read-out: endo.mtl.18hr
[2] = iPSC-EC tube formation, 18 hr, 0.00 µM control = 100.00, read-out: endo.tlps.18hr
[3] = iPSC-EC tube formation, 18 hr, 0.00 µM control = 100.00, read-out: endo.tta.18hr
[4] = iPSC-EC tube formation, 18 hr, 0.00 µM control = 100.00, read-out: endo.ttl.18hr
[5] = iPSC-EC tube formation, 18 hr, top concentration 100.00 µM, read-out: endo.mtl.18hr POD
[6] = iPSC-EC tube formation, 18 hr, top concentration 100.00 µM, read-out: endo.tlps.18hr POD
[7] = iPSC-EC tube formation, 18 hr, top concentration 100.00 µM, read-out: endo.tta.18hr POD
[8] = iPSC-EC tube formation, 18 hr, top concentration 100.00 µM, read-out: endo.ttl.18hr POD
[9] = iPSC-EC, 0.00 µM = 100.00, read-out: endo.mtl.18hr
[10] = iPSC-EC, 0.00 µM = 100.00, read-out: endo.tlps.18hr
[11] = iPSC-EC, 0.00 µM = 100.00, read-out: endo.tta.18hr
[12] = iPSC-EC, 0.00 µM = 100.00, read-out: endo.ttl.18hr
[13] = endothelial cells (endo), tube formation mtl, 18 hr, read-out: POD endo.mtl.18hr
[14] = endothelial cells (endo), tube formation tlps, 18 hr, read-out: POD endo.tlps.18hr
[15] = endothelial cells (endo), tube formation tta, 18 hr, read-out: POD endo.tta.18hr
[16] = endothelial cells (endo), tube formation ttl, 18 hr, read-out: POD endo.ttl.18hr

O=S(=O)(O)Oc1cc(-c2ccccc2)ccc1Cl [3-yl PCB 3 sulfate]
activity at 0.01 µM [1]: 102%
activity at 0.01 µM [2]: 104%
activity at 0.01 µM [3]: 152%
activity at 0.01 µM [4]: 139%
activity at 0.1 µM [1]: 88.6%
activity at 0.1 µM [2]: 127%
activity at 0.1 µM [3]: 93.5%
activity at 0.1 µM [4]: 88.4%
activity at 1 µM [1]: 92.1%
activity at 1 µM [2]: 89.4%
activity at 1 µM [3]: 106%
activity at 1 µM [4]: 101%
activity at 10 µM [1]: 75.1%
activity at 10 µM [2]: 68.7%
activity at 10 µM [3]: 61.4%
activity at 10 µM [4]: 59.2%
activity at 100 µM [1]: 83.7%
activity at 100 µM [2]: 46.7%
activity at 100 µM [3]: 78.8%
activity at 100 µM [4]: 79%
minimal effective concentration [5]: 100 µM
minimal effective concentration [6]: 6.75 µM
minimal effective concentration [7]: 100 µM
minimal effective concentration [8]: 100 µM

Clc1ccc(-c2cc(Cl)c(Cl)c(Cl)c2)cc1Cl [PCB126]
activity at 0.01 µM [9]: 99.5%
activity at 0.01 µM [10]: 175%
activity at 0.01 µM [11]: 91%
activity at 0.01 µM [12]: 90.1%
activity at 0.1 µM [9]: 125%
activity at 0.1 µM [10]: 110%
activity at 0.1 µM [11]: 130%
activity at 0.1 µM [12]: 136%
activity at 1 µM [9]: 104%
activity at 1 µM [10]: 99.1%
activity at 1 µM [11]: 126%
activity at 1 µM [12]: 125%
activity at 10 µM [9]: 93.8%
activity at 10 µM [10]: 52.4%
activity at 10 µM [11]: 91.2%
activity at 10 µM [12]: 100%
activity at 100 µM [9]: 74.1%
activity at 100 µM [10]: 40.1%
activity at 100 µM [11]: 41.4%
activity at 100 µM [12]: 39.6%
minimal effective concentration (iPSC-EC, 100.00 = highest concentration tested, read-out: endo.mtl.18hr POD): 28.1 µM
minimal effective concentration (iPSC-EC, 100.00 = highest concentration tested, read-out: endo.tlps.18hr POD): 4.68 µM
minimal effective concentration (iPSC-EC, 100.00 = highest concentration tested, read-out: endo.tta.18hr POD): 25.7 µM
minimal effective concentration (iPSC-EC, 100.00 = highest concentration tested, read-out: endo.ttl.18hr POD): 38.9 µM

Clc1ccc(Cl)c(-c2cc(Cl)ccc2Cl)c1 [PCB 52, 2,2′,5,5′-tetrachlorobiphenyl]
minimal effective concentration [13]: 79.8 µM
minimal effective concentration [14]: 100 µM
minimal effective concentration [15]: 100 µM
minimal effective concentration [16]: 100 µM

Oc1ccccc1-c1ccc(Cl)cc1 [2'-OH PCB3]
activity at 0.01 µM [1]: 114%
activity at 0.01 µM [2]: 123%
activity at 0.01 µM [3]: 120%
activity at 0.01 µM [4]: 113%
activity at 0.1 µM [1]: 106%
activity at 0.1 µM [2]: 118%
activity at 0.1 µM [3]: 103%
activity at 0.1 µM [4]: 103%
activity at 1 µM [1]: 100%
activity at 1 µM [2]: 102%
activity at 1 µM [3]: 99.3%
activity at 1 µM [4]: 98.8%
activity at 10 µM [1]: 91.1%
activity at 10 µM [2]: 76.6%
activity at 10 µM [3]: 98%
activity at 10 µM [4]: 91.8%
activity at 100 µM [1]: 54.3%
activity at 100 µM [2]: 20.2%
activity at 100 µM [3]: 18.5%
activity at 100 µM [4]: 21.2%
minimal effective concentration [5]: 13.4 µM
minimal effective concentration [6]: 9.27 µM
minimal effective concentration [7]: 29.9 µM
minimal effective concentration [8]: 23.1 µM

Clc1ccc(-c2ccccc2)cc1 [PCB 3, 4-chlorobiphenyl]
minimal effective concentration [13]: 100 µM
minimal effective concentration [14]: 100 µM
minimal effective concentration [15]: 100 µM
minimal effective concentration [16]: 100 µM

O=S(=O)(O)Oc1ccc(-c2cccc(Cl)c2)cc1Cl [4-yl PCB 11 sulfate]
activity at 0.01 µM [1]: 107%
activity at 0.01 µM [2]: 113%
activity at 0.01 µM [3]: 174%
activity at 0.01 µM [4]: 179%
activity at 0.1 µM [1]: 122%
activity at 0.1 µM [2]: 98.8%
activity at 0.1 µM [3]: 119%
activity at 0.1 µM [4]: 124%
activity at 1 µM [1]: 113%
activity at 1 µM [2]: 103%
activity at 1 µM [3]: 124%
activity at 1 µM [4]: 128%
activity at 10 µM [1]: 94.3%
activity at 10 µM [2]: 82.5%
activity at 10 µM [3]: 91.7%
activity at 10 µM [4]: 93.7%
activity at 100 µM [1]: 68.5%
activity at 100 µM [2]: 27.8%
activity at 100 µM [3]: 26.5%
activity at 100 µM [4]: 25.6%
minimal effective concentration [5]: 25.3 µM
minimal effective concentration [6]: 12.7 µM
minimal effective concentration [7]: 21 µM
minimal effective concentration [8]: 25.6 µM

O=S(=O)(O)Oc1cc(Cl)c(-c2cc(Cl)ccc2Cl)cc1Cl [4-PCB 52 sulfate]
minimal effective concentration [13]: 7.44 µM
minimal effective concentration [14]: 5.74 µM
minimal effective concentration [15]: 8.83 µM
minimal effective concentration [16]: 9.64 µM

COc1ccc(-c2cccc(Cl)c2)cc1Cl [4-OMe PCB11]
activity at 0.01 µM [1]: 115%
activity at 0.01 µM [2]: 108%
activity at 0.01 µM [3]: 168%
activity at 0.01 µM [4]: 169%
activity at 0.1 µM [1]: 114%
activity at 0.1 µM [2]: 108%
activity at 0.1 µM [3]: 134%
activity at 0.1 µM [4]: 137%
activity at 1 µM [1]: 113%
activity at 1 µM [2]: 122%
activity at 1 µM [3]: 139%
activity at 1 µM [4]: 145%
activity at 10 µM [1]: 95.5%
activity at 10 µM [2]: 82.3%
activity at 10 µM [3]: 105%
activity at 10 µM [4]: 106%
activity at 100 µM [1]: 88.4%
activity at 100 µM [2]: 63.4%
activity at 100 µM [3]: 101%
activity at 100 µM [4]: 100%
minimal effective concentration [5]: 100 µM
minimal effective concentration [6]: 28.4 µM
minimal effective concentration [7]: 0.00169 µM
minimal effective concentration [8]: 0.00197 µM
